# Measured values: PubChem BioAssay (NCI)
#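 Results reflect a 48-hour exposure of cells in 96-well plates to compound at five concentrations. TGI: concentration producing complete growth inhibition.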
# How the values were obtained:
# Assay in all cases: growth of human tumour cells (NCI), 48 h
# 786-0 renal = tested on: 786-0 renal
# A498 renal = tested on: A498 renal
# ACHN renal = tested on: ACHN renal
# CAKI-1 renal = tested on: CAKI-1 renal
# CCRF-CEM leukemia = tested on: CCRF-CEM leukemia
# COLO 205 colon = tested on: COLO 205 colon
# DLD-1 colon = tested on: DLD-1 colon
# DMS 114 small cell lung = tested on: DMS 114 small cell lung
# DMS 273 small cell lung = tested on: DMS 273 small cell lung
# HCC-2998 colon = tested on: HCC-2998 colon
# HCT-15 colon = tested on: HCT-15 colon
# HL-60(TB) leukemia = tested on: HL-60(TB) leukemia
# HOP-18 NSCLC = tested on: HOP-18 NSCLC
# HOP-62 NSCLC = tested on: HOP-62 NSCLC
# HT29 colon = tested on: HT29 colon
# IGROV1 ovarian = tested on: IGROV1 ovarian
# K-562 leukemia = tested on: K-562 leukemia
# KM12 colon = tested on: KM12 colon
# KM20L2 colon = tested on: KM20L2 colon
# LXFL 529 NSCLC = tested on: LXFL 529 NSCLC
# M14 melanoma = tested on: M14 melanoma
# MALME-3M melanoma = tested on: MALME-3M melanoma
# MOLT-4 leukemia = tested on: MOLT-4 leukemia
# NCI-H226 lung = tested on: NCI-H226 lung
# NCI-H23 lung = tested on: NCI-H23 lung
# NCI-H460 lung = tested on: NCI-H460 lung
# NCI-H522 lung = tested on: NCI-H522 lung
# OVCAR-3 ovarian = tested on: OVCAR-3 ovarian
# OVCAR-4 ovarian = tested on: OVCAR-4 ovarian
# OVCAR-5 ovarian = tested on: OVCAR-5 ovarian
# RPMI-8226 leukemia = tested on: RPMI-8226 leukemia
# RXF-631 renal = tested on: RXF-631 renal
# SF-268 CNS = tested on: SF-268 CNS
# SF-295 CNS = tested on: SF-295 CNS
# SF-539 CNS = tested on: SF-539 CNS
# SK-MEL-2 melanoma = tested on: SK-MEL-2 melanoma
# SK-MEL-28 melanoma = tested on: SK-MEL-28 melanoma
# SK-MEL-5 melanoma = tested on: SK-MEL-5 melanoma
# SK-OV-3 ovarian = tested on: SK-OV-3 ovarian
# SN12C renal = tested on: SN12C renal
# SNB-19 CNS = tested on: SNB-19 CNS
# SNB-75 CNS = tested on: SNB-75 CNS
# SNB-78 CNS = tested on: SNB-78 CNS
# SR leukemia = tested on: SR leukemia
# SW-620 colon = tested on: SW-620 colon
# U251 CNS = tested on: U251 CNS
# UACC-257 melanoma = tested on: UACC-257 melanoma
# UACC-62 melanoma = tested on: UACC-62 melanoma
# UO-31 renal = tested on: UO-31 renal
# HCT-116 colon = tested on: HCT-116 colon
# HOP-92 NSCLC = tested on: HOP-92 NSCLC
# M19-MEL melanoma = tested on: M19-MEL melanoma
# XF 498 CNS = tested on: XF 498 CNS
structure (smiles),measurement,setting,value
Cc1ccccc1N1C(=O)/C(=C/c2ccc(N(CCC#N)CCC#N)cc2)N=C1c1cc([N+](=O)[O-])ccc1Cl,TGI,786-0 renal,> 100 µM
same,TGI,A498 renal,> 100 µM
same,TGI,ACHN renal,> 100 µM
same,TGI,CAKI-1 renal,> 100 µM
same,TGI,CCRF-CEM leukemia,> 100 µM
same,TGI,COLO 205 colon,72 µM
same,TGI,DLD-1 colon,> 100 µM
same,TGI,DMS 114 small cell lung,> 100 µM
same,TGI,DMS 273 small cell lung,> 100 µM
same,TGI,HCC-2998 colon,> 100 µM
same,TGI,HCT-15 colon,> 100 µM
same,TGI,HL-60(TB) leukemia,> 100 µM
same,TGI,HOP-18 NSCLC,> 100 µM
same,TGI,HOP-62 NSCLC,> 100 µM
same,TGI,HT29 colon,> 100 µM
same,TGI,IGROV1 ovarian,> 100 µM
same,TGI,K-562 leukemia,> 100 µM
same,TGI,KM12 colon,> 100 µM
same,TGI,KM20L2 colon,> 100 µM
same,TGI,LXFL 529 NSCLC,> 100 µM
same,TGI,M14 melanoma,> 100 µM
same,TGI,MALME-3M melanoma,> 100 µM
same,TGI,MOLT-4 leukemia,> 100 µM
same,TGI,NCI-H226 lung,> 100 µM
same,TGI,NCI-H23 lung,> 100 µM
same,TGI,NCI-H460 lung,> 100 µM
same,TGI,NCI-H522 lung,> 100 µM
same,TGI,OVCAR-3 ovarian,> 100 µM
same,TGI,OVCAR-4 ovarian,> 100 µM
same,TGI,OVCAR-5 ovarian,> 100 µM
same,TGI,RPMI-8226 leukemia,> 100 µM
same,TGI,RXF-631 renal,> 100 µM
same,TGI,SF-268 CNS,> 100 µM
same,TGI,SF-295 CNS,> 100 µM
same,TGI,SF-539 CNS,> 100 µM
same,TGI,SK-MEL-2 melanoma,> 100 µM
same,TGI,SK-MEL-28 melanoma,> 100 µM
same,TGI,SK-MEL-5 melanoma,> 100 µM
same,TGI,SK-OV-3 ovarian,> 100 µM
same,TGI,SN12C renal,> 100 µM
same,TGI,SNB-19 CNS,> 100 µM
same,TGI,SNB-75 CNS,> 100 µM
same,TGI,SNB-78 CNS,> 100 µM
same,TGI,SR leukemia,> 100 µM
same,TGI,SW-620 colon,> 100 µM
same,TGI,U251 CNS,> 100 µM
same,TGI,UACC-257 melanoma,> 100 µM
same,TGI,UACC-62 melanoma,> 100 µM
same,TGI,UO-31 renal,> 100 µM
Cc1ccc(NC(=O)c2c(C)nc(=O)n3c2N(/N=C/c2ccc(Cl)cc2)CC3)cc1,TGI,786-0 renal,33.8 µM
same,TGI,A498 renal,33.1 µM
same,TGI,ACHN renal,33.8 µM
same,TGI,CAKI-1 renal,32.1 µM
same,TGI,CCRF-CEM leukemia,> 100 µM
same,TGI,COLO 205 colon,54.8 µM
same,TGI,DLD-1 colon,30.7 µM
same,TGI,DMS 114 small cell lung,55.1 µM
same,TGI,DMS 273 small cell lung,43.9 µM
same,TGI,HCC-2998 colon,32.3 µM
same,TGI,HCT-116 colon,26.4 µM
same,TGI,HL-60(TB) leukemia,48.7 µM
same,TGI,HOP-62 NSCLC,33.1 µM
same,TGI,HOP-92 NSCLC,36.6 µM
same,TGI,IGROV1 ovarian,36.2 µM
same,TGI,K-562 leukemia,> 100 µM
same,TGI,LXFL 529 NSCLC,31.6 µM
same,TGI,M14 melanoma,31.5 µM
same,TGI,M19-MEL melanoma,37 µM
same,TGI,MALME-3M melanoma,40.1 µM
same,TGI,MOLT-4 leukemia,82 µM
same,TGI,NCI-H226 lung,33.3 µM
same,TGI,NCI-H23 lung,29.2 µM
same,TGI,NCI-H522 lung,24 µM
same,TGI,OVCAR-4 ovarian,32 µM
same,TGI,RXF-631 renal,30.6 µM
same,TGI,SF-268 CNS,29.2 µM
same,TGI,SF-539 CNS,25 µM
same,TGI,SK-MEL-2 melanoma,34.7 µM
same,TGI,SK-MEL-28 melanoma,31.2 µM
same,TGI,SK-OV-3 ovarian,39.7 µM
same,TGI,SN12C renal,30.6 µM
same,TGI,SNB-75 CNS,34.1 µM
same,TGI,SNB-78 CNS,40.5 µM
same,TGI,SR leukemia,> 100 µM
same,TGI,UACC-62 melanoma,28.2 µM
same,TGI,UO-31 renal,24 µM
same,TGI,XF 498 CNS,34.1 µM
